# Data published in patent US6355799B1, “Substituted benzene compounds, process for their preparation, and herbicidal and defoliant compositions containing them” (ISK Americas Incorporated, priority 1997, dated 2002).
# Columns and labels:
# Type in all cases: in vivo
# [1] = test system: redroot pigweed (Amaranthus retroflexus, AMARE); assay: Pre-emerge test, greenhouse herbicide activity screening; conditions: pre-emerge, 14 days after application, rating scale 0-100
# Procedure, shortened: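 Sandy loam pots; pre-emerge: sown 1 d pre-spray, surface-watered after, then bottom-watered. Post-emerge: sown 8–21 d before, 2–3 leaf stage, + 0.25% v/v NIS, bottom-watered. Acetone, 187 l/ha track spray, 15–1000 g ai/ha. 0–100 injury score, day 14.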
# [2] = test system: barnyardgrass (Echinochloa crus-galli, ECHCG); assay: as above; conditions: pre-emerge, 14 days after application, rating scale 0-100
# Procedure, shortened: (§1)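 Visual ratings on a 0-100 scale (0 no damage, 100 all plants dead) were taken at 14 days after treatment. Rates of 15-1000 g ai/ha in acetone, 187 l/ha, were sprayed onto soil one day after planting (pre-emerge) or onto 2-3 leaf plants with 0.25% v/v surfactant (post-emerge).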
# [3] = test system: common ragweed (Ambrosia artemisizfolia L., AMBEL); assay: as above; conditions: pre-emerge, 14 days after application, rating scale 0-100
# Procedure, shortened: as §1
# [4] = test system: green foxtail (Setaria viridis, SETVI); assay: as above; conditions: pre-emerge, 14 days after application, rating scale 0-100
# Procedure, shortened: as §1
# [5] = test system: ivyleaf morningglory (Ipomoea hederacea, IPOHE); assay: as above; conditions: pre-emerge, 14 days after application, rating scale 0-100
# Procedure, shortened: as §1
# [6] = test system: johnsongrass (Sorghum halepense, SORHA); assay: as above; conditions: pre-emerge, 14 days after application, rating scale 0-100
# Procedure, shortened: as §1
# [7] = test system: lambsquarters (Chenopodium album, CHEAL); assay: as above; conditions: pre-emerge, 14 days after application, rating scale 0-100
# Procedure, shortened: as §1
# [8] = test system: large crabgrass (Digitaria sanguinalis, DIGSA); assay: as above; conditions: pre-emerge, 14 days after application, rating scale 0-100
# Procedure, shortened: as §1
# [9] = test system: sicklepod (Cassia obtusifolia, CASOB); assay: as above; conditions: pre-emerge, 14 days after application, rating scale 0-100
# Procedure, shortened: as §1
# [10] = test system: velvetleaf (Abutilon theophrasti, ABUTH); assay: as above; conditions: pre-emerge, 14 days after application, rating scale 0-100
# Procedure, shortened: as §1
# [11] = test system: field corn (Zea mays L., var. Dekalb 535, CORN); assay: Pre-emerge test, crop safety; conditions: pre-emerge, 14 days after application, rating scale 0-100
# Procedure, shortened: (§2)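 Fourteen days after spraying, crop and weed injury was graded visually from 0, no effect, to 100, every plant dead. Test substances were dissolved in acetone and applied at 15–1000 g ai/ha with a flat-fan nozzle. Application was either pre-emergence, one day after sowing, or post-emergence at the 2–3 leaf stage.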
# [12] = test system: upland rice (Oryza sp., var. Tebonnet, RICE); assay: Pre-emerge test, crop safety; conditions: pre-emerge, 14 days after application, rating scale 0-100
# Procedure, shortened: as §2
# [13] = test system: barnyardgrass (Echinochloa crus-galli, ECHCG); assay: Post-emerge test, greenhouse herbicide activity screening; conditions: post-emerge, 14 days after application, rating scale 0-100
# Procedure, shortened: (§3)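 Plants grown in 10 cm pots of sandy loam mix received acetone-dissolved compounds through a moving flat-fan nozzle. Doses ranged from 15 to 1000 g ai/ha. Pre-emerge pots were seeded one day earlier, post-emerge pots 8–21 days earlier. Fourteen days on, each pot was graded 0–100 for damage.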
# [14] = test system: green foxtail (Setaria viridis, SETVI); assay: as above; conditions: post-emerge, 14 days after application, rating scale 0-100
# Procedure, shortened: as §3
# [15] = test system: ivyleaf morningglory (Ipomoea hederacea, IPOHE); assay: as above; conditions: post-emerge, 14 days after application, rating scale 0-100
# Procedure, shortened: as §3
# [16] = test system: johnsongrass (Sorghum halepense, SORHA); assay: as above; conditions: post-emerge, 14 days after application, rating scale 0-100
# Procedure, shortened: as §3
# [17] = test system: lambsquarters (Chenopodium album, CHEAL); assay: as above; conditions: post-emerge, 14 days after application, rating scale 0-100
# Procedure, shortened: as §3
# [18] = test system: large crabgrass (Digitaria sanguinalis, DIGSA); assay: as above; conditions: post-emerge, 14 days after application, rating scale 0-100
# Procedure, shortened: as §3
# [19] = test system: redroot pigweed (Amaranthus retroflexus, AMARE); assay: as above; conditions: post-emerge, 14 days after application
# Procedure, shortened: as §3
# [20] = test system: sicklepod (Cassia obtusifolia, CASOB); assay: as above; conditions: post-emerge, 14 days after application, rating scale 0-100
# Procedure, shortened: as §3
# [21] = test system: velvetleaf (Abutilon theophrasti, ABUTH); assay: as above; conditions: post-emerge, 14 days after application, rating scale 0-100
# Procedure, shortened: as §3
# [22] = test system: field corn (Zea mays L., var. Dekalb 535, CORN); assay: Post-emerge test, crop safety; conditions: post-emerge, 14 days after application, rating scale 0-100
# Procedure, shortened: as §1
# [23] = test system: upland rice (Oryza sp., var. Tebonnet, RICE); assay: Post-emerge test, crop safety; conditions: post-emerge, 14 days after application, rating scale 0-100
# Procedure, shortened: as §1
compound,measurement,setting,value
C=CC=NNc1c(OC)c(Cl)cc(F)c1-n1c(=O)cc(C(F)(F)F)n(C)c1=O [15-10],phytotoxicity rating AMARE,[1]; 63 g ai/ha,100
same,phytotoxicity rating AMARE,[1]; 250 g ai/ha,100
same,phytotoxicity rating ECHCG,[2]; 63 g ai/ha,99
same,phytotoxicity rating ECHCG,[2]; 250 g ai/ha,100
same,phytotoxicity rating AMBEL,[3]; 63 g ai/ha,100
same,phytotoxicity rating AMBEL,[3]; 250 g ai/ha,100
same,phytotoxicity rating SETVI,[4]; 63 g ai/ha,100
same,phytotoxicity rating SETVI,[4]; 250 g ai/ha,100
same,phytotoxicity rating IPOHE,[5]; 63 g ai/ha,100
same,phytotoxicity rating IPOHE,[5]; 250 g ai/ha,100
same,phytotoxicity rating SORHA,[6]; 63 g ai/ha,100
same,phytotoxicity rating SORHA,[6]; 250 g ai/ha,100
same,phytotoxicity rating CHEAL,[7]; 63 g ai/ha,100
same,phytotoxicity rating CHEAL,[7]; 250 g ai/ha,100
same,phytotoxicity rating DIGSA,[8]; 63 g ai/ha,100
same,phytotoxicity rating DIGSA,[8]; 250 g ai/ha,100
same,phytotoxicity rating CASOB,[9]; 63 g ai/ha,80
same,phytotoxicity rating CASOB,[9]; 250 g ai/ha,100
same,phytotoxicity rating ABUTH,[10]; 63 g ai/ha,100
same,phytotoxicity rating ABUTH,[10]; 250 g ai/ha,100
same,phytotoxicity rating CORN,[11]; 63 g ai/ha,75
same,phytotoxicity rating CORN,[11]; 250 g ai/ha,100
same,phytotoxicity rating RICE,[12]; 63 g ai/ha,80
same,phytotoxicity rating RICE,[12]; 250 g ai/ha,100
same,Post-emerge Herbicidal Activity ECHCG (phytotoxicity rating),[13]; 63 g ai/ha,10
same,Post-emerge Herbicidal Activity ECHCG (phytotoxicity rating),[13]; 250 g ai/ha,80
same,Post-emerge Herbicidal Activity SETVI (phytotoxicity rating),[14]; 63 g ai/ha,30
same,Post-emerge Herbicidal Activity SETVI (phytotoxicity rating),[14]; 250 g ai/ha,75
same,Post-emerge Herbicidal Activity IPOHE (phytotoxicity rating),[15]; 63 g ai/ha,100
same,Post-emerge Herbicidal Activity IPOHE (phytotoxicity rating),[15]; 250 g ai/ha,100
same,Post-emerge Herbicidal Activity SORHA (phytotoxicity rating),[16]; 63 g ai/ha,30
same,Post-emerge Herbicidal Activity SORHA (phytotoxicity rating),[16]; 250 g ai/ha,70
same,Post-emerge Herbicidal Activity CHEAL (phytotoxicity rating),[17]; 63 g ai/ha,100
same,Post-emerge Herbicidal Activity CHEAL (phytotoxicity rating),[17]; 250 g ai/ha,100
same,Post-emerge Herbicidal Activity DIGSA (phytotoxicity rating),[18]; 63 g ai/ha,60
same,Post-emerge Herbicidal Activity DIGSA (phytotoxicity rating),[18]; 250 g ai/ha,90
same,Post-emerge Herbicidal Activity AMARE (phytotoxicity rating),"[19]; 63 g ai/ha, rating scale 0-100 (0 no damage, 100 complete death)",100
same,Post-emerge Herbicidal Activity AMARE (phytotoxicity rating),"[19]; 250 g ai/ha, rating scale 0-100",100
same,Post-emerge Herbicidal Activity CASOB (phytotoxicity rating),[20]; 63 g ai/ha,100
same,Post-emerge Herbicidal Activity CASOB (phytotoxicity rating),[20]; 250 g ai/ha,100
same,Post-emerge Herbicidal Activity ABUTH (phytotoxicity rating),[21]; 63 g ai/ha,100
same,Post-emerge Herbicidal Activity ABUTH (phytotoxicity rating),[21]; 250 g ai/ha,100
same,Post-emerge Herbicidal Activity CORN (crop damage rating),[22]; 63 g ai/ha,45
same,Post-emerge Herbicidal Activity CORN (crop damage rating),[22]; 250 g ai/ha,65
same,Post-emerge Herbicidal Activity RICE (crop damage rating),[23]; 63 g ai/ha,50
same,Post-emerge Herbicidal Activity RICE (crop damage rating),[23]; 250 g ai/ha,80
